Laboratory results: US7718614B2 (Kurume University, priority 2003, dated 2010)
“And” between values parts separate entries of the source, which are not always exact repeats. Equal entries are not always repeated. “Also recorded” adds a separate entry of the source.

What was measured:
[1] = tested on: peptide-specific CTL precursors in PBMCs; assay: Peptide-specific CTL precursor assay (IFN-γ production of peptide-stimulated PBMCs), Example 1; format: cell-based, human; design: key to Cellular response to peptide during the combination therapy, 12th / Cellular response to peptide during the combination therapy, 6th / Cellular response to peptide during the combination therapy, Pre: Ar: p* ≦ 0.1 and 500 ≦ net**; A: p ≦ 0.05 and 50 ≦ net; B: p ≦ 0.05 and 25 ≦ net < 50; C: 0.05 < p < 0.1 and 50 ≦ net; AAAA: all four wells of quadruplicate assay were positive; AAA: three wells of quadruplicate assay were positive; AA: two wells of quadruplicate assay were positive; conditions: PBMCs of the individual case; for Cellular response to peptide during the combination therapy, 12th: after 12th vaccination; for Cellular response to peptide during the combination therapy, Pre: before combination therapy, grade of each positive well of quadruplicate IFN-γ assay; for Cellular response to peptide during the combination therapy, 6th: after 6th vaccination; for Cellular response to peptide during the combination therapy, 18th: after 18th vaccination;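 on all read-outs here: PBMCs cultured with each peptide at 10 µM, restimulated at 20 µM every 3 days up to 12 days, then 18 hr with peptide-pulsed target cells, IFN-γ by ELISA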
Experimental: Before the first vaccination and 7 days after every 6th vaccination, 30 ml of peripheral blood was obtained, and PBMCs were isolated by means of Ficoll-Conray density gradient centrifugation. Peptide-specific CTL precursors in PBMCs were detected using a previously reported culture method [24]. Briefly, PBMCs (1×10^5 cells/well) were incubated with 10 μM of each peptide in U-bottom-type 96-well microculture plates (Nunc, Roskilde, Denmark) in 200 μl of culture medium. The culture medium contained 45% RPMI-1640 medium, 45% AIM-V™ medium (Invitrogen Corp., Carlsbad, Calif.), 10% FCS, 100 U/ml of interleukin-2 (IL-2) and 0.1 mM MEM nonessential amino acid solution (Invitrogen Corp.). Half of the medium was removed and replaced with the new medium containing a corresponding peptide (20 μM) every 3 days for up to 12 days. […] The target cells (C1R-A2402 or T2, 1×10^4/well) were pulsed with each peptide (10 μM) for 2 hr, and then effector cells (1×10^5/well) were added to each well with the final volume of 200 μl. After incubation for 18 hr, the supernatants (100 μl) were collected, and the amounts of IFN-γ were measured using an enzyme-linked immuno-sorbent assay (ELISA) (limit of sensitivity: 10 pg/ml). All experiments were performed in the four different wells with duplicate assays. […] Peptides were chosen based upon evaluation of all 4 wells by the order shown above.
Peptide-specific CTL precursors in PBMCs were detected using a previously reported culture method [24], while an ELISA was used to detect the serum IgG levels specific for the peptides administrated, as reported previously [13-15]. […] Namely, PBMCs were harvested every 2 weeks and were cultured (10^4 cells/well) for 2 days in triplicate assays with 10 μl M of phytohemagglutinin (PHA), 10 ng/ml of Epstein-Bar virus (EBV)-derived peptide with HLA-A24 or -A2 binding motif, and 10 ng/ml of two different peptides under vaccination. After 2 days in culture, the amounts of IFN-γ in cell free supernatants were measured in triplicate assays, and viable cell numbers were also counted. To avoid biases in each assay, all the PBMCs were once cryopreserved and the four different PBMCs (two from healthy donors, one from patients PBMCs harvested 2 weeks before the latest vaccination, and one from the latest vaccination) were thawed at the same time in the morning of the experiment. The PBMCs from healthy donors were from the same donors throughout the series of immunological monitoring. Responses (IFN-γ production) to PHA, EBV-peptide, and the vaccinated peptides were considered to be mediated by resting T cells, memory T cells, and activated T cells, respectively.

peptide-specific IgG = assay: ELISA of serum IgG specific for the administered peptides, Example 1; format: in vivo, human; design: key: −: absent; +: present, low titer; ++: present, high titer; conditions: serum of the individual case; for Anti-peptide IgG during the combination therapy, 6th: after 6th vaccination; for Anti-peptide IgG during the combination therapy, 12th: after 12th vaccination; for Anti-peptide IgG during the combination therapy, Pre: before combination therapy; for Anti-peptide IgG during the combination therapy, 18th: after 18th vaccination

## ALVEFEDVL [HNRPL140-148]
[1]
  Cellular response to peptide during the combination therapy, 12th: ArArArA
  Cellular response to peptide during the combination therapy, Pre: AAC
peptide-specific IgG
  Anti-peptide IgG during the combination therapy, 6th: ++
  Anti-peptide IgG during the combination therapy, 12th: +
  Anti-peptide IgG during the combination therapy, Pre: −

## ASLDSDPWV [WHSC2103-111]
peptide-specific IgG
  Anti-peptide IgG during the combination therapy, 6th: −
  Anti-peptide IgG during the combination therapy, Pre: −

## DFMIQGGDF [CyB91-99]
[1]
  Cellular response to peptide during the combination therapy, 6th: C (0.05 < p < 0.1 and 50 ≦ net)
peptide-specific IgG
  Anti-peptide IgG during the combination therapy, 6th: −
  Anti-peptide IgG during the combination therapy, Pre: −

## DLLSHAFFAI [ppMAPkkk432-440]
[1]
  Cellular response to peptide during the combination therapy, 6th: C (0.05 < p < 0.1 and 50 ≦ net); also recorded: A (p ≦ 0.05 and 50 ≦ net)
  Cellular response to peptide during the combination therapy, Pre: ArA and A (p ≦ 0.05 and 50 ≦ net)
peptide-specific IgG
  Anti-peptide IgG during the combination therapy, 6th: ++ and − (2×) and +
  Anti-peptide IgG during the combination therapy, 12th: ++ and + (2×)
  Anti-peptide IgG during the combination therapy, 18th: +
  Anti-peptide IgG during the combination therapy, Pre: + and − (3×)

## DVWSFGILL [lck422-430]
[1]
  Cellular response to peptide during the combination therapy, 6th: C (0.05 < p < 0.1 and 50 ≦ net) and A (p ≦ 0.05 and AAA
  Cellular response to peptide during the combination therapy, 12th: C (0.05 < p < 0.1 and 50 ≦ net)
  Cellular response to peptide during the combination therapy, 18th: C (0.05 < p < 0.1 and 50 ≦ net); also recorded: ArAAA
  Cellular response to peptide during the combination therapy, Pre: A (p ≦ 0.05 and 50 ≦ net); also recorded: Ar (p* ≦ 0.1 and 500 ≦ net**); also recorded: C (0.05 < p < 0.1 and 50 ≦ net)
peptide-specific IgG
  Anti-peptide IgG during the combination therapy, 6th: + (2×) and − (4×)
  Anti-peptide IgG during the combination therapy, 12th: + (2×) and − (3×)
  Anti-peptide IgG during the combination therapy, 18th: −
  Anti-peptide IgG during the combination therapy, Pre: − (5×) and +

## EYCLKFTKL [ART 1170-179]
[1]
  Cellular response to peptide during the combination therapy, 6th: C (0.05 < p < 0.1 and 50 ≦ net); also recorded: A (p ≦ 0.05 and 50 ≦ net)
  Cellular response to peptide during the combination therapy, 12th: AAA
  Cellular response to peptide during the combination therapy, 18th: A (p ≦ 0.05 and 50 ≦ net)
  Cellular response to peptide during the combination therapy, Pre: A (p ≦ 0.05 and 50 ≦ net)
peptide-specific IgG
  Anti-peptide IgG during the combination therapy, 6th: ++
  Anti-peptide IgG during the combination therapy, 12th: ++
  Anti-peptide IgG during the combination therapy, 18th: ++
  Anti-peptide IgG during the combination therapy, Pre: ++

## GLLFLHTRTI [ppMAPkkk294-302]
[1]
  Cellular response to peptide during the combination therapy, 6th: C (0.05 < p < 0.1 and 50 ≦ net)
  Cellular response to peptide during the combination therapy, 12th: C (0.05 < p < 0.1 and 50 ≦ net)
  Cellular response to peptide during the combination therapy, 18th: ArArAA
  Cellular response to peptide during the combination therapy, Pre: A (p ≦ 0.05 and 50 ≦ net)
peptide-specific IgG
  Anti-peptide IgG during the combination therapy, 6th: + and − (2×) and ++
  Anti-peptide IgG during the combination therapy, 12th: + and − and ++
  Anti-peptide IgG during the combination therapy, 18th: + and −
  Anti-peptide IgG during the combination therapy, Pre: − (3×) and +

## ILGELREKV [WHSC2141-]
peptide-specific IgG
  Anti-peptide IgG during the combination therapy, 6th: −
  Anti-peptide IgG during the combination therapy, 12th: −
  Anti-peptide IgG during the combination therapy, Pre: −

## KLKHYGPGWV [CypB129-138]
[1]
  Cellular response to peptide during the combination therapy, 6th: A (p ≦ 0.05 and 50 ≦ net)
  Cellular response to peptide during the combination therapy, Pre: A (p ≦ 0.05 and 50 ≦ net)
peptide-specific IgG
  Anti-peptide IgG during the combination therapy, 6th: −
  Anti-peptide IgG during the combination therapy, 12th: − and +
  Anti-peptide IgG during the combination therapy, Pre: −

## KLVERLGAA [lck246-254]
[1]
  Cellular response to peptide during the combination therapy, 6th: A (p ≦ 0.05 and 50 ≦ net)
  Cellular response to peptide during the combination therapy, 12th: B (p ≦ 0.05 and 25 ≦ net < 50) (2×) and ArAA
  Cellular response to peptide during the combination therapy, 18th: ArAAA
  Cellular response to peptide during the combination therapy, Pre: A (p ≦ 0.05 and 50 ≦ net) and ArC
peptide-specific IgG
  Anti-peptide IgG during the combination therapy, 6th: ++ (4×) and −
  Anti-peptide IgG during the combination therapy, 12th: ++ (4×) and −
  Anti-peptide IgG during the combination therapy, 18th: −
  Anti-peptide IgG during the combination therapy, Pre: ++ (3×) and − (2×)

## LIADFLSGLI [UBE2V85-93]
[1]
  Cellular response to peptide during the combination therapy, 12th: A (p ≦ 0.05 and 50 ≦ net)
peptide-specific IgG
  Anti-peptide IgG during the combination therapy, 6th: −
  Anti-peptide IgG during the combination therapy, 12th: +
  Anti-peptide IgG during the combination therapy, 18th: +
  Anti-peptide IgG during the combination therapy, Pre: −

## NVLHFFNAPL [HNRPL501-510]
[1]
  Cellular response to peptide during the combination therapy, 6th: AAA and ArArArAr
  Cellular response to peptide during the combination therapy, 12th: ArArAc; also recorded: ArArAr
  Cellular response to peptide during the combination therapy, 18th: ArA
  Cellular response to peptide during the combination therapy, Pre: A (p ≦ 0.05 and 50 ≦ net) and ArAr
peptide-specific IgG
  Anti-peptide IgG during the combination therapy, 6th: ++ and − (2×) and +
  Anti-peptide IgG during the combination therapy, 12th: ++ (2×) and −
  Anti-peptide IgG during the combination therapy, 18th: +
  Anti-peptide IgG during the combination therapy, Pre: − (3×) and +

## RIIYDRKFL [EIF4EBP151-59]
[1]
  Cellular response to peptide during the combination therapy, 12th: A (p ≦ 0.05 and 50 ≦ net)
  Cellular response to peptide during the combination therapy, 18th: B (p ≦ 0.05 and 25 ≦ net < 50)
peptide-specific IgG
  Anti-peptide IgG during the combination therapy, 6th: − and ++
  Anti-peptide IgG during the combination therapy, 12th: − and ++
  Anti-peptide IgG during the combination therapy, 18th: +
  Anti-peptide IgG during the combination therapy, Pre: − and +

## RLAEYQAYI [SART 3309-317]
[1]
  Cellular response to peptide during the combination therapy, 6th: Ar (p* ≦ 0.1 and 500 ≦ net**)
  Cellular response to peptide during the combination therapy, 12th: Ar (p* ≦ 0.1 and 500 ≦ net**)
  Cellular response to peptide during the combination therapy, 18th: ArAC
  Cellular response to peptide during the combination therapy, Pre: A (p ≦ 0.05 and 50 ≦ net)
peptide-specific IgG
  Anti-peptide IgG during the combination therapy, 6th: −
  Anti-peptide IgG during the combination therapy, 12th: −
  Anti-peptide IgG during the combination therapy, 18th: +
  Anti-peptide IgG during the combination therapy, Pre: −

## RLQEWCSVI [UBE2V43-51]
[1]
  Cellular response to peptide during the combination therapy, 6th: ACC and AA
  Cellular response to peptide during the combination therapy, 12th: ArArArA; also recorded: A (p ≦ 0.05 and 50 ≦ net); also recorded: C (0.05 < p < 0.1 and 50 ≦ net)
  Cellular response to peptide during the combination therapy, Pre: AAA and AAAB and ArA
peptide-specific IgG
  Anti-peptide IgG during the combination therapy, 6th: ++ (3×) and +
  Anti-peptide IgG during the combination therapy, 12th: ++
  Anti-peptide IgG during the combination therapy, Pre: ++ and − (2×) and +
